Assay results taken from patent publication US4048334A, “Active derivatives of methylamino in therapeutic compositions and methods of use” (priority 1974, dated 1977).

Legend:
[1] = tested on: reserpine-induced catatonia; experiment: Inhibition of reserpine-induced catatonia; type: in vivo, rat (male, OFA strain); details: for Inhibition of reserpine-induced catatonia: 30 min before reserpine
Protocol: 1. Inhibition of reserpine-induced catatonia
After sufficient doses of reserpine have been administered to the rat, a series of symptoms occur, more particularly ptosis, catatonia and a drop in central temperature. These symptoms are caused by the depletion of the intragranular reserve pool of boigenetic amines at the synaptic terminals.
An oral dose of the compound to be studied in aqueous solution was administered to batches of 10 male rats of the OFA strain weighing about 150 to 200 g. Thirty minutes later a dose of 5 mg/kg of reserpine was given by intraperitoneal route. Three hours after the injection of reserpine, the animals were suspended by the four paws to a horizontally stretched wire fixed at 15 cm from the ground. The catatonic animals were those which maintained the position so given for at least 30 seconds. […] The maximum score was therefore 10 per batch. An identical trial was undertaken with control animals which received reserpine but none of the compounds being studied.

[2] = tested on: neuroleptic-induced catatonia; experiment: Inhibition of neuroleptic-induced catatonia (prochlorperazine); type: in vivo, rat (male, OFA strain); details: for Inhibition of the neuroleptic-induced catatonia: 30 min before prochlorperazine; for activity compared with amantadine, neuroleptic-induced catatonia: versus amantadine
Protocol: 2. Inhibition of neuroleptic-induced catatonia
The blocking of dopaminergic receptors by neuroleptics in the extra-pyramidal system induces catatonia in the rat. Catatonia is differentiated from sedative properties by means of the test used hereabove for reserpine-induced catatonia. The same system of scoring was also employed in the present case.
An oral dose of the compound to be studied in aqueous solution was administered to batches of 10 male rats of the OFA strain weighing about 150 to 200 g. […] Three hours after the injection of this latter compound, catatonia was measured. An identical trial was also carried out with control animals which received prochlorperazine but none of the compounds under study.
The scoring system, used was that given hereabove in Table I.

[3] = tested on: isolated duodenum of the rat; experiment: MAGNUS test: inhibition of acetylcholine spasm (cholinolytic / spasmolytic activity in vitro)
Source text: This test consists in determining the dose of acetylcholine which, when added to the bath, provokes spasm of the isolated duodenum of the rat. The next step consists in determining the dose of the compound under study which, when added to the bath 30 seconds before the acetylcholine, reduces the spasm.

CCCC(N)(CCC)CCC
score, reserpine-induced catatonia ([1]; 3 mg/kg): 4 (100% inhibition of catatonia in comparison with the controls (namely a score of 0 per studied batch)) | score, neuroleptic-induced catatonia ([2]; 3 mg/kg): 4 (100% inhibition of catatonia in comparison with the controls (namely a score of 0 per studied batch))

CN1[C@@H]2CC[C@H]1C[C@@H](OC(=O)C(CO)c1ccccc1)C2 (stereo partly drawn) [Atropine, reference compound]
% of inhibition of the spasm ([3]; 0.1 × 10^-6 g/ml of bath): 45% | % of inhibition of the spasm ([3]; 0.2 × 10^-6 g/ml of bath): 100%

CCCC(N)(CC)CC(C)C (stereo not drawn) [Compound 3, 1-Ethyl-1-isobutyl-n-butylamine]
Inhibition of reserpine-induced catatonia ([1]; 20 mg/kg oral): 3 (70 to 80% inhibition of catatonia in comparison with the controls (namely a score of 2 or 3 per studied batch)) | Inhibition of the neuroleptic-induced catatonia ([2]; 20 mg/kg oral): 3 (70 to 80% inhibition of catatonia in comparison with the controls (namely a score of 2 or 3 per studied batch))

CCCCC(N)(CC)CCC (stereo not drawn) [Compound 4, 1-Ethyl-1-n-propyl-n-pentylamine]
Inhibition of reserpine-induced catatonia ([1]; 20 mg/kg oral): 3 (70 to 80% inhibition of catatonia in comparison with the controls (namely a score of 2 or 3 per studied batch)) | Inhibition of the neuroleptic-induced catatonia ([2]; 20 mg/kg oral): 3 (70 to 80% inhibition of catatonia in comparison with the controls (namely a score of 2 or 3 per studied batch))

CCCC(N)(CCC)CC(C)C [Compound 5, 1-n-Propyl-1-isobutyl-n-butylamine]
Inhibition of reserpine-induced catatonia ([1]; 20 mg/kg oral): 2 (50% inhibition of catationia in comprison with the controls (namely a score of 5 per studied batch)) | Inhibition of the neuroleptic-induced catatonia ([2]; 20 mg/kg oral): 4 (100% inhibition of catatonia in comparison with the controls (namely a score of 0 per studied batch)) | activity compared with amantadine, neuroleptic-induced catatonia [2]: five times more active than amantadine

CCCC(C)CC(C)(N)CC (stereo not drawn) [Compound 7, 1,3-Dimethyl-1-ethyl-n-hexylamine]
Inhibition of reserpine-induced catatonia ([1]; 20 mg/kg oral): 1 (20 to 30% inhibition of catatonia in comparison with the controls (namely a score of 7 to 8 per studied batch)) | Inhibition of the neuroleptic-induced catatonia ([2]; 40 mg/kg oral): 1 (20 to 30% inhibition of catatonia in comparison with the controls (namely a score of 7 to 8 per studied batch))

CCCCC(C)(N)CC(C)C (stereo not drawn) [Compound 8, 1-Methyl-1-isobutyl-n-pentylamine]
Inhibition of reserpine-induced catatonia ([1]; 20 mg/kg oral): 1 (20 to 30% inhibition of catatonia in comparison with the controls (namely a score of 7 to 8 per studied batch)) | Inhibition of the neuroleptic-induced catatonia ([2]; 50 mg/kg oral): 4 (100% inhibition of catatonia in comparison with the controls (namely a score of 0 per studied batch)) | activity compared with amantadine, neuroleptic-induced catatonia [2]: twice as active

CCCCCCCC(C)(C)N [Compound 10, 1,1-Dimethyl-n-octylamine]
Inhibition of reserpine-induced catatonia ([1]; 20 mg/kg oral): 1 (20 to 30% inhibition of catatonia in comparison with the controls (namely a score of 7 to 8 per studied batch)) | Inhibition of the neuroleptic-induced catatonia ([2]; 50 mg/kg oral): 1 (20 to 30% inhibition of catatonia in comparison with the controls (namely a score of 7 to 8 per studied batch))

C=CCC(N)(CC=C)CC=C [Compound 11, 1,1-Di-(2-propen-1-yl)-3-buten-1-ylamine]
Inhibition of reserpine-induced catatonia ([1]; 20 mg/kg oral): 1 (20 to 30% inhibition of catatonia in comparison with the controls (namely a score of 7 to 8 per studied batch)) | Inhibition of the neuroleptic-induced catatonia ([2]; 20 mg/kg oral): 1 (20 to 30% inhibition of catatonia in comparison with the controls (namely a score of 7 to 8 per studied batch))

CCCCC(C)CC(C)(C)N (stereo not drawn) [Compound 13, 1,1,3-Trimethyl-n-heptylamine]
Inhibition of reserpine-induced catatonia ([1]; 25 mg/kg oral): 1 (20 to 30% inhibition of catatonia in comparison with the controls (namely a score of 7 to 8 per studied batch)) | Inhibition of the neuroleptic-induced catatonia ([2]; 50 mg/kg oral): 1 (20 to 30% inhibition of catatonia in comparison with the controls (namely a score of 7 to 8 per studied batch))

CCCC(N)(CC)CC [Compound 14, 1,1-Diethyl-n-butylamine]
Inhibition of reserpine-induced catatonia ([1]; 50 mg/kg oral): 3 (70 to 80% inhibition of catatonia in comparison with the controls (namely a score of 2 or 3 per studied batch)) | Inhibition of the neuroleptic-induced catatonia ([2]; 50 mg/kg oral): 3 (70 to 80% inhibition of catatonia in comparison with the controls (namely a score of 2 or 3 per studied batch))

CCC(N)(CC)CC [Compound 15, 1,1-Diethyl-n-propylamine]
Inhibition of reserpine-induced catatonia ([1]; 50 mg/kg oral): 1 (20 to 30% inhibition of catatonia in comparison with the controls (namely a score of 7 to 8 per studied batch)) | Inhibition of the neuroleptic-induced catatonia ([2]; 50 mg/kg oral): 3 (70 to 80% inhibition of catatonia in comparison with the controls (namely a score of 2 or 3 per studied batch))

CCC(C)(C)N [Compound 16, 1,1-Dimethyl-n-propylamine]
Inhibition of reserpine-induced catatonia ([1]; 50 mg/kg oral): 1 (20 to 30% inhibition of catatonia in comparison with the controls (namely a score of 7 to 8 per studied batch)) | Inhibition of the neuroleptic-induced catatonia ([2]; 10 mg/kg oral): 1 (20 to 30% inhibition of catatonia in comparison with the controls (namely a score of 7 to 8 per studied batch))

CCCC(CC)CC(C)(C)N (stereo not drawn) [Compound 17, 1,1-Dimethyl-3-ethyl-n-hexylamine]
Inhibition of reserpine-induced catatonia ([1]; 11 mg/kg oral): 1 (20 to 30% inhibition of catatonia in comparison with the controls (namely a score of 7 to 8 per studied batch)) | Inhibition of the neuroleptic-induced catatonia ([2]; 11 mg/kg oral): 2 (50% inhibition of catationia in comprison with the controls (namely a score of 5 per studied batch))

CCCC(N)(CC(C)C)CC(C)C [Compound 18, 1,1-Diisobutyl-n-butylamine]
Inhibition of reserpine-induced catatonia ([1]; 12 mg/kg oral): 2 (50% inhibition of catationia in comprison with the controls (namely a score of 5 per studied batch)) | Inhibition of the neuroleptic-induced catatonia ([2]; 12 mg/kg oral): 1 (20 to 30% inhibition of catatonia in comparison with the controls (namely a score of 7 to 8 per studied batch))

CCCC(N)(CCC)C(C)C [Compound 19, 1-n-Propyl-1-isopropyl-n-butylamine]
Inhibition of reserpine-induced catatonia ([1]; 6 mg/kg oral): 3 (70 to 80% inhibition of catatonia in comparison with the controls (namely a score of 2 or 3 per studied batch)) | Inhibition of the neuroleptic-induced catatonia ([2]; 6 mg/kg oral): 3 (70 to 80% inhibition of catatonia in comparison with the controls (namely a score of 2 or 3 per studied batch))

CCCC(N)(CCC)C(C)(C)C [Compound 20, 1-n-Propyl-1-tert-butyl-n-butylamine]
Inhibition of reserpine-induced catatonia ([1]; 6 mg/kg oral): 2 (50% inhibition of catationia in comprison with the controls (namely a score of 5 per studied batch)) | Inhibition of the neuroleptic-induced catatonia ([2]; 50 mg/kg oral): 1 (20 to 30% inhibition of catatonia in comparison with the controls (namely a score of 7 to 8 per studied batch))

C#CC(N)(CCC)CCC [Compound 21, 1,1-Di-n-propyl-2-propyn-1-ylamine]
Inhibition of reserpine-induced catatonia ([1]; 30 mg/kg oral): 2 (50% inhibition of catationia in comprison with the controls (namely a score of 5 per studied batch)) | Inhibition of the neuroleptic-induced catatonia ([2]; 30 mg/kg oral): 1 (20 to 30% inhibition of catatonia in comparison with the controls (namely a score of 7 to 8 per studied batch))

CCC#CC(N)(CC)CC [Compound 22, 1,1-Diethyl-2-pentyn-1-ylamine]
Inhibition of reserpine-induced catatonia ([1]; 60 mg/kg oral): 1 (20 to 30% inhibition of catatonia in comparison with the controls (namely a score of 7 to 8 per studied batch)) | Inhibition of the neuroleptic-induced catatonia ([2]; 30 mg/kg oral): 1 (20 to 30% inhibition of catatonia in comparison with the controls (namely a score of 7 to 8 per studied batch))

CCC=CC(N)(CC)CC [Compound 23, 1,1-Diethyl-2-penten-1-ylamine]
Inhibition of reserpine-induced catatonia ([1]; 60 mg/kg oral): 1 (20 to 30% inhibition of catatonia in comparison with the controls (namely a score of 7 to 8 per studied batch)) | Inhibition of the neuroleptic-induced catatonia ([2]; 30 mg/kg oral): 1 (20 to 30% inhibition of catatonia in comparison with the controls (namely a score of 7 to 8 per studied batch))

CCC#CC(N)(CCC)CCC [Compound 24, 1,1-Di-n-propyl-2-pentyn-1-ylamine]
Inhibition of reserpine-induced catatonia ([1]; 20 mg/kg oral): 1 (20 to 30% inhibition of catatonia in comparison with the controls (namely a score of 7 to 8 per studied batch)) | Inhibition of the neuroleptic-induced catatonia ([2]; 20 mg/kg oral): 2 (50% inhibition of catationia in comprison with the controls (namely a score of 5 per studied batch))

CCC=CC(N)(CCC)CCC [Compound 25, 1,1-Di-n-propyl-2-penten-1-ylamine]
Inhibition of reserpine-induced catatonia ([1]; 6 mg/kg oral): 3 (70 to 80% inhibition of catatonia in comparison with the controls (namely a score of 2 or 3 per studied batch)) | Inhibition of the neuroleptic-induced catatonia ([2]; 6 mg/kg oral): 3 (70 to 80% inhibition of catatonia in comparison with the controls (namely a score of 2 or 3 per studied batch))

C#CCC(N)(CCC)CCC [Compound 26, 1,1-Di-n-propyl-3-butyn-1-ylamine]
Inhibition of reserpine-induced catatonia ([1]; 30 mg/kg oral): 1 (20 to 30% inhibition of catatonia in comparison with the controls (namely a score of 7 to 8 per studied batch)) | Inhibition of the neuroleptic-induced catatonia ([2]; 30 mg/kg oral): 4 (100% inhibition of catatonia in comparison with the controls (namely a score of 0 per studied batch))
